Laboratory results reported in US20160318866A1, “SUBSTITUTED BIPIPERIDINYL DERIVATIVES” (Bayer Pharma Aktiengesellschaft, priority 2013, published 2016).

Columns and labels:
ZDF rat = experiment: Measurement of blood flow and blood pressure in rats (ZDF rats); format: in vivo; details: for Change in the femoral flow in %: ZDF rat, steady state, 32 min after start, vs initial flow, mean
Method: Wistar rats (Hsd Cpb:Wu) of a weight of 250-350 g or ZDF rats (ZDF/Crl-Lepr fa/fa) of a weight of 330-520 g were anaesthetized using 2.5% isoflurane in an oxygen/laughing gas mixture (40:60). To determine the blood flow in the carotid artery and the femoral artery, the anaesthetized rat was brought into a supine position, and the left carotid artery and the right femoral artery are then carefully exposed. Blood flow was measured by placing flow probes (Transonic Flowprobe) at the vessels. By introducing a PE50 artery catheter into the left femoral artery, blood pressure and heart rate were determined (Transducer Ref. 5203660: from Braun CH). The substances were administered as a bolus injection or a continuous infusion via a venous catheter in the left femoral vein.
Following the preparation of the animals, there was a 5 min baseline interval. Infusion of the AR alphα2C receptor antagonist was then started. In the steady state (32 min after the start of the experiment), the femoral flow was determined in relation (% difference) to the initial flow.

adult female Wistar rats = experiment: Radiotelemetric measurement of blood pressure and heart rate of conscious rats; format: in vivo, rat; details: 5 and 15 mg/kg, oral, telemetry over 24 hours
Text: A commercially available telemetry system from Data Sciences International DSI, USA, was employed for the measurements on conscious rats described below. The system consists of 3 main components: (1) implantable transmitters (Physiotel® telemetry transmitter), (2) receivers (Physiotel® receiver), which are linked via a multiplexer (DSI Data Exchange Matrix) to a (3) data acquisition computer. The telemetry system makes it possible to continuously record blood pressure, heart rate and body motion of conscious animals in their usual habitat.
The studies were conducted on adult female Wistar rats with a body weight of >200 g. After transmitter implantation, the experimental animals were housed singly in type III Makrolon® cages. They had free access to standard feed and water. The day/night rhythm in the test laboratory was set by changing the illumination of the room.
The telemetry transmitters used (PA-C40, DSI) were surgically implanted under aseptic conditions in the experimental animals at least 14 days before the first experimental use.
For the implantation, the fasted animals were anaesthetized with isoflurane (IsoFlo®, Abbott, initiation 5%, maintenance 2%) and shaved and disinfected over a large area of their abdomens. […]
Each of the instrumented rats living in the system was assigned a separate receiving antenna (RPC-1 Receiver, DSI). […] The signals emitted were detected online by a data acquisition system (Dataquest™ A.R.T. for Windows, DSI) and processed accordingly.
In the standard procedure, the following were measured for 10-second periods in each case: (1) systolic blood pressure (SBP), (2) diastolic blood pressure (DBP), (3) mean arterial pressure (MAP), (4) heart rate (HR) and (5) activity (ACT). These parameters were measured over 24 hours after administration.
The acquisition of measurements was repeated under computer control at 5-minute intervals. The source data obtained as absolute values were corrected in the diagram with the currently measured barometric pressure (Ambient Pressure Reference Monitor, APR-1, DSI). […]

[1] = anaesthetized rats, same experiment as femoral flow, strain not specified

Which “Change in the femoral flow in %” value (ZDF rat; 3 μg/kg/min infusion) does the source give for `CC1CCCN(C2CCN(C(=O)c3ccc(C(C)(C)O)cc3)CC2)C1` (single isomer, unassigned) [Example 8, [4-(1-Hydroxy-1-methylethyl)phenyl)](3-methyl-1,4′-bipiperidin-1′-yl)methanone, (−)-enantiomer] here?
The value was 12.0 (n = 4) %.

And the “Change in the femoral flow in %” value (ZDF rat; 10 μg/kg/min infusion)?
The value was 127.9%.

What about the “Change in the femoral flow in %” value (ZDF rat; 30 μg/kg/min infusion) of the same molecule?
Its value is 144.4%.

And the blood pressure (ZDF rat; [1])?
Its blood pressure is “no changes”.

And the heart rate (ZDF rat; [1])?
The heart rate was “no changes”.

What about the blood pressure (adult female Wistar rats) of the same molecule?
Its blood pressure is “without any effect on blood pressure”.

What about the heart rate (adult female Wistar rats) of the same molecule?
Its heart rate is “slight transient increase of the heart rate”.
